According to article PMC11434100, “Biomimetic Metal–Organic Framework Gated Nanoplatform for Sonodynamic Therapy against Extensively Drug Resistant Bacterial Lung Infection” (Advanced Science, 2024):
Converted amounts (≈) assume the structure as drawn.

Assays:
XDR-PA = test: Drug sensitivity test of clinical strains (Table S2); assay type: cell-based, Pseudomonas aeruginosa; conditions: value in brackets; for MIC: Pseudomonas aeruginosa
XDR-Kp = test: as above; assay type: cell-based, Klebsiella pneumoniae; conditions: value in brackets; for MIC: Klebsiella pneumoniae
XDR-AB = test: as above; assay type: cell-based, Acinetobacter baumannii; conditions: value in brackets; for MIC: Acinetobacter baumannii
XDR-E. coli = test: as above; assay type: cell-based, Escherichia coli; conditions: value in brackets; for MIC: Escherichia coli
[1] = test system: XDR-Kp (clinically isolated XDR Klebsiella pneumoniae); test: Minimum inhibitory concentration, broth dilution (Table S1); assay type: cell-based; conditions: CLSI guidelines, 10^5 CFU mL−1, 24 h, 37 °C, visible growth
Procedure: (§1) Four clinically isolated XDR strains were cultured in LB media at 37 °C with rotation (180 rpm) overnight. […] The bacterial concentration was adjusted to 10^5 CFU mL^−1.

[2] = test system: XDR-AB (clinically isolated XDR Acinetobacter baumannii); test: as above; assay type: cell-based; conditions: CLSI guidelines, 10^5 CFU mL−1, 24 h, 37 °C, visible growth
Procedure: as §1

[3] = test system: XDR-PA (clinically isolated XDR Pseudomonas aeruginosa); test: as above; assay type: cell-based; conditions: CLSI guidelines, 10^5 CFU mL−1, 24 h, 37 °C, visible growth
Procedure: as §1

[4] = test system: XDR-E. coli (clinically isolated XDR Escherichia coli); test: as above; assay type: cell-based; conditions: CLSI guidelines, 10^5 CFU mL−1, 24 h, 37 °C, visible growth
Procedure: as §1

Row | Compound | MIC (XDR-PA) [µg/mL] | MIC (XDR-Kp) [µg/mL] | MIC (XDR-AB) [µg/mL] | MIC (XDR-E. coli) [µg/mL] | also measured
1 | NCC[C@H](O)C(=O)N[C@@H]1C[C@H](N)[C@@H](O[C@H]2O[C@H](CN)[C@@H](O)[C@H](O)[C@H]2O)[C@H](O)[C@H]1O[C@H]1O[C@H](CO)[C@@H](O)[C@H](N)[C@H]1O [Amikacin] | ≥ 64 | ≥ 64 | ≥ 64 | ≥ 64 | 
2 | CC1(C)S[C@@H]2[C@H](NC(=O)[C@H](N)c3ccccc3)C(=O)N2[C@H]1C(=O)O [Ampicillin] | ≥ 32 | ≥ 32 | ≥ 32 | ≥ 32 | 
3 | Cc1nnc(SCC2=C(C(=O)O)N3C(=O)[C@@H](NC(=O)Cn4cnnn4)[C@H]3SC2)s1 [Cefazolin] | ≥ 64 | ≥ 64 | ≥ 64 | ≥ 64 | 
4 | CO/N=C(\C(=O)N[C@@H]1C(=O)N2C(C(=O)[O-])=C(C[N+]3(C)CCCC3)CS[C@H]12)c1csc(N)n1 [Cefepime] | ≥ 64 | ≥ 64 | ≥ 64 | ≥ 64 | 
5 | CO[C@@]1(NC(=O)C2SC(=C(C(N)=O)C(=O)O)S2)C(=O)N2C(C(=O)O)=C(CSc3nnnn3C)CS[C@@H]21 (some centres unmarked) [Cefotetan] | ≥ 64 | ≥ 64 | ≥ 64 | ≥ 64 | 
6 | CC(C)(O/N=C(\C(=O)N[C@@H]1C(=O)N2C(C(=O)[O-])=C(C[n+]3ccccc3)CS[C@H]12)c1csc(N)n1)C(=O)O [Ceftazidime] | ≥ 64 | ≥ 64 | ≥ 64 | ≥ 64 | 
7 | C[C@@H](O)[C@H]1C(=O)N2C(C(=O)O)=C(SCCN=CN)C[C@H]12 [Imipenem] | ≥ 16 | ≥ 16 | ≥ 16 | ≥ 16 | 
8 | C[C@H]1COc2c(N3CCN(C)CC3)c(F)cc3c(=O)c(C(=O)O)cn1c23 [Levofloxacin] | ≥ 8 | ≥ 8 | ≥ 8 | 11 (≈ 30.4 µM) | 
9 | CN(C)c1cc(NC(=O)CNC(C)(C)C)c(O)c2c1C[C@H]1C[C@H]3[C@H](N(C)C)C(O)=C(C(N)=O)C(=O)[C@@]3(O)C(O)=C1C2=O [Tigecycline] |  |  | 0.38 (≈ 0.649 µM) |  | 
10 | NC[C@H]1O[C@H](O[C@H]2[C@H](O)[C@@H](O[C@H]3O[C@H](CO)[C@@H](O)[C@H](N)[C@H]3O)[C@H](N)C[C@@H]2N)[C@H](N)C[C@@H]1O [Tobramycin] | ≥ 16 | ≥ 16 | ≥ 16 | ≥ 16 | 
11 | Gentamycin |  |  |  |  | MIC (drug sensitivity test) (XDR-PA): >= 16 µg mL-1; MIC (drug sensitivity test) (XDR-Kp): >= 16 µg mL-1; MIC (drug sensitivity test) (XDR-AB): >= 16 µg mL-1; MIC (drug sensitivity test) (XDR-E. coli): >= 16 µg mL-1
12 | Polymyxin B [PMB] |  |  |  |  | MIC (drug sensitivity test) (XDR-PA): 0.5 µg/mL; MIC (drug sensitivity test) (XDR-E. coli): 0.5 µg/mL; MIC [1]: 16 µg/mL; MIC [2]: 32 µg/mL; MIC [3]: 8 µg/mL; MIC [4]: 16 µg/mL
